Measured values from the NIST ThermoML archive (doi:10.1021/je050054u).
± gives the expanded uncertainty stated by the source.

Conditions: Liquid, Closed cell (Static) method

SMILES: CCF [fluoroethane]
- vapor or sublimation pressure (235.69 K): 101.5 ± 3 kPa
- vapor or sublimation pressure (235.74 K): 101.7 ± 3 kPa
- vapor or sublimation pressure (235.79 K): 101.9 ± 3 kPa
- vapor or sublimation pressure (235.84 K): 102.2 ± 3 kPa
- vapor or sublimation pressure (235.89 K): 102.4 ± 3 kPa
- vapor or sublimation pressure (235.94 K): 102.6 ± 3 kPa
- vapor or sublimation pressure (236 K): 102.9 ± 3 kPa
- vapor or sublimation pressure (236.09 K): 103.4 ± 3 kPa
- vapor or sublimation pressure (237.11 K): 108.3 ± 3 kPa
- vapor or sublimation pressure (238.07 K): 113.3 ± 3 kPa
- vapor or sublimation pressure (240.11 K): 124.1 ± 3 kPa
- vapor or sublimation pressure (242.12 K): 135.4 ± 3 kPa
- vapor or sublimation pressure (244.1 K): 147.6 ± 3 kPa
- vapor or sublimation pressure (245.09 K): 153.8 ± 3 kPa
- vapor or sublimation pressure (247.09 K): 167.1 ± 3 kPa
- vapor or sublimation pressure (249.1 K): 181.5 ± 3 kPa
- vapor or sublimation pressure (251.07 K): 196.3 ± 3 kPa
- vapor or sublimation pressure (253.11 K): 212.7 ± 3 kPa
- vapor or sublimation pressure (255.11 K): 229.7 ± 3 kPa
- vapor or sublimation pressure (257.13 K): 247.8 ± 3 kPa
- vapor or sublimation pressure (259.11 K): 267.6 ± 3 kPa
- vapor or sublimation pressure (261.11 K): 288 ± 3 kPa
- vapor or sublimation pressure (263.12 K): 309.5 ± 3 kPa
- vapor or sublimation pressure (264.11 K): 320.7 ± 3 kPa
- vapor or sublimation pressure (265.1 K): 332.4 ± 3 kPa
- vapor or sublimation pressure (266.12 K): 344.5 ± 3 kPa
- vapor or sublimation pressure (267.13 K): 356.6 ± 3 kPa
- vapor or sublimation pressure (268.13 K): 369.1 ± 3.1 kPa
- vapor or sublimation pressure (269.13 K): 382 ± 3.1 kPa
- vapor or sublimation pressure (270.13 K): 395.3 ± 3.1 kPa
- vapor or sublimation pressure (271.13 K): 408.8 ± 3.1 kPa
- vapor or sublimation pressure (272.15 K): 422.9 ± 3.1 kPa
- vapor or sublimation pressure (273.12 K): 436.7 ± 3.1 kPa
- vapor or sublimation pressure (274.11 K): 451.2 ± 3.1 kPa
- vapor or sublimation pressure (275.11 K): 466 ± 3.1 kPa
- vapor or sublimation pressure (276.14 K): 481.8 ± 3.1 kPa
- vapor or sublimation pressure (277.14 K): 497.5 ± 3.1 kPa
- vapor or sublimation pressure (278.17 K): 513.9 ± 3.1 kPa
- vapor or sublimation pressure (279.14 K): 529.9 ± 3.1 kPa
- vapor or sublimation pressure (280.13 K): 546.6 ± 3.1 kPa
- vapor or sublimation pressure (281.13 K): 563.9 ± 3.1 kPa
- vapor or sublimation pressure (282.16 K): 581.9 ± 3.1 kPa
- vapor or sublimation pressure (283.14 K): 599.6 ± 3.1 kPa
- vapor or sublimation pressure (285.18 K): 636.5 ± 3.1 kPa
- vapor or sublimation pressure (287.13 K): 675.1 ± 3.2 kPa
- vapor or sublimation pressure (288.13 K): 695.2 ± 3.2 kPa
- vapor or sublimation pressure (290.14 K): 737.5 ± 3.2 kPa
- vapor or sublimation pressure (292.01 K): 777.9 ± 3.2 kPa
- vapor or sublimation pressure (294.03 K): 824.2 ± 3.2 kPa
- vapor or sublimation pressure (296.04 K): 871.8 ± 3.3 kPa
- vapor or sublimation pressure (298.07 K): 921.9 ± 3.3 kPa
- vapor or sublimation pressure (300.05 K): 972.9 ± 3.3 kPa
- vapor or sublimation pressure (302 K): 1024.9 ± 3.4 kPa
- vapor or sublimation pressure (304.03 K): 1081.4 ± 3.4 kPa
- vapor or sublimation pressure (306.12 K): 1141.9 ± 3.4 kPa
- vapor or sublimation pressure (308.08 K): 1200.9 ± 3.5 kPa
- vapor or sublimation pressure (310.32 K): 1270.6 ± 3.5 kPa
- vapor or sublimation pressure (312.19 K): 1330.5 ± 3.6 kPa
- vapor or sublimation pressure (314.18 K): 1398.1 ± 3.6 kPa
- vapor or sublimation pressure (316.32 K): 1472.8 ± 3.7 kPa
- vapor or sublimation pressure (316.33 K): 1473.6 ± 3.7 kPa
- vapor or sublimation pressure (318.17 K): 1539.8 ± 3.8 kPa
- vapor or sublimation pressure (320.14 K): 1613.2 ± 3.8 kPa
- vapor or sublimation pressure (322.13 K): 1690.2 ± 3.9 kPa
- vapor or sublimation pressure (324.12 K): 1770.2 ± 4 kPa
- vapor or sublimation pressure (326.11 K): 1852.2 ± 4 kPa
- vapor or sublimation pressure (328.13 K): 1938.9 ± 4.1 kPa
- vapor or sublimation pressure (330.15 K): 2027 ± 4.2 kPa
- vapor or sublimation pressure (332.15 K): 2119.3 ± 4.3 kPa
- vapor or sublimation pressure (333.15 K): 2167.4 ± 4.4 kPa
- vapor or sublimation pressure (334.16 K): 2215.1 ± 4.4 kPa
- vapor or sublimation pressure (335.15 K): 2263.9 ± 4.5 kPa
- vapor or sublimation pressure (336.15 K): 2313.2 ± 4.5 kPa
- vapor or sublimation pressure (337.15 K): 2363.2 ± 4.6 kPa
- vapor or sublimation pressure (338.16 K): 2414.5 ± 4.6 kPa
- vapor or sublimation pressure (339.15 K): 2465.8 ± 4.7 kPa
- vapor or sublimation pressure (340.16 K): 2518.5 ± 4.8 kPa
- vapor or sublimation pressure (341.15 K): 2572 ± 4.8 kPa
- vapor or sublimation pressure (342.15 K): 2626.3 ± 4.9 kPa
- vapor or sublimation pressure (343.15 K): 2681.7 ± 4.9 kPa
- vapor or sublimation pressure (344.14 K): 2737.4 ± 5 kPa
- vapor or sublimation pressure (345.15 K): 2794.3 ± 5.1 kPa
- vapor or sublimation pressure (346.15 K): 2852.2 ± 5.1 kPa
- vapor or sublimation pressure (347.15 K): 2910.8 ± 5.2 kPa
- vapor or sublimation pressure (348.15 K): 2970.7 ± 5.3 kPa
- vapor or sublimation pressure (349.15 K): 3030.8 ± 5.3 kPa
- vapor or sublimation pressure (350.15 K): 3092.2 ± 5.4 kPa
- vapor or sublimation pressure (351.15 K): 3154.5 ± 5.5 kPa
- vapor or sublimation pressure (352.15 K): 3218 ± 5.6 kPa
- vapor or sublimation pressure (353.14 K): 3282 ± 5.7 kPa
- vapor or sublimation pressure (354.15 K): 3347.6 ± 5.7 kPa
- vapor or sublimation pressure (355.15 K): 3414.2 ± 5.8 kPa
- vapor or sublimation pressure (356.15 K): 3481.2 ± 5.9 kPa
- vapor or sublimation pressure (357.14 K): 3549.5 ± 6 kPa
- vapor or sublimation pressure (358.14 K): 3619.1 ± 6.1 kPa
- vapor or sublimation pressure (359.14 K): 3689.1 ± 6.2 kPa
- vapor or sublimation pressure (360.15 K): 3761.3 ± 6.3 kPa
- vapor or sublimation pressure (361.15 K): 3834 ± 6.3 kPa
- vapor or sublimation pressure (362.16 K): 3908 ± 6.4 kPa
- vapor or sublimation pressure (363.14 K): 3982.2 ± 6.5 kPa
- vapor or sublimation pressure (364.14 K): 4058.4 ± 6.6 kPa
- vapor or sublimation pressure (364.15 K): 4060.2 ± 6.6 kPa
- vapor or sublimation pressure (365.14 K): 4138 ± 6.7 kPa
- vapor or sublimation pressure (366.15 K): 4216.8 ± 6.8 kPa
- vapor or sublimation pressure (367.15 K): 4295.8 ± 6.9 kPa
- vapor or sublimation pressure (368.16 K): 4376.8 ± 7 kPa
- vapor or sublimation pressure (369.14 K): 4460.1 ± 7.2 kPa
- vapor or sublimation pressure (370.14 K): 4543.5 ± 7.3 kPa
- vapor or sublimation pressure (371.14 K): 4627.6 ± 7.4 kPa
- vapor or sublimation pressure (372.14 K): 4713.9 ± 7.5 kPa
